Data on 17 compounds can be found in ChEMBL document CHEMBL3259804, “Syk inhibitors with high potency in presence of blood” (Bioorg Med Chem Lett, 2014).

pIC50: −log10 of the molar value. Some results are limits rather than exact numbers.

One data set deals with Bone marrow cell. As to the kind of experiment: Inhibition of IL3 dependent proliferation in […] mouse bone marrow cells using [3H]thymidine by liquid scintillation counting. It counts as functional, cell-based.
Data set [1] addresses T1, Tyrosine-protein kinase SYK (Homo sapiens, UniProt P43405). As to the kind of experiment: Inhibition of Syk in anti IgM-stimulated human Ramos cells assessed as BLNK phosphorylation by cellular assay.
Data set [2] deals with T2, Tyrosine-protein kinase ZAP-70 (Homo sapiens, UniProt P43403).
T2 sequence (P43403 whole entry): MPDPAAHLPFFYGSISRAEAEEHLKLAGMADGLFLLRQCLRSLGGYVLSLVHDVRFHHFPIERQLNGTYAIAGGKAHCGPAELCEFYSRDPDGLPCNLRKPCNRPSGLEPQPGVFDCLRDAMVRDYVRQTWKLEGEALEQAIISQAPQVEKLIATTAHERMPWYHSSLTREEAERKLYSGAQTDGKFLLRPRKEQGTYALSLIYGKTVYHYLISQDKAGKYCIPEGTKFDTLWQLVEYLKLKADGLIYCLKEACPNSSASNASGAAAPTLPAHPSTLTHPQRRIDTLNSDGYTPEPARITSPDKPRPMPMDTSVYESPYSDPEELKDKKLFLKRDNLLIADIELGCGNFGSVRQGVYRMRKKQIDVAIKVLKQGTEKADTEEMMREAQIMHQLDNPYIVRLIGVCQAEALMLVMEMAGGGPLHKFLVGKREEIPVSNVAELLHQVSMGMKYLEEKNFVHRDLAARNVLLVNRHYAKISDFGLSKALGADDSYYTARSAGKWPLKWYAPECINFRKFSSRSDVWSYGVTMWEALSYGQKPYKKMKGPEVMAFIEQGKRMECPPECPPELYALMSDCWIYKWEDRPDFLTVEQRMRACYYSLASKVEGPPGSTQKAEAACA
The data set is described as follows: Inhibition of ZAP70 (unknown origin).

Data set [3] deals with T1, Tyrosine-protein kinase SYK. As to the kind of experiment: Inhibition of Syk (unknown origin) using 4 uM peptide assessed as product formation after 60 mins incubation by microfluidic mobility shift assay.
Data set [4] has as its system Rattus norvegicus. The data set is described as follows: Dose normalized AUC in Sprague-Dawley rat at 3 mg/kg, po. The format is ADME, organism-based. Also noted: dose 3 mg/kg, route oral. The note with it: in vivo.
Data set [5] can be described thus: Terminal half life Sprague-Dawley rat at 1 mg/kg, iv and 3 mg/kg, po. It counts as ADME, organism-based. The conditions noted are these: in vivo, read-out: beta t1/2 (converted).
Data set [6] can be described thus: Half life in rat liver S9 fraction assessed as conversion into 5-(1H-indol-7-ylamino)-7-((1R,2S)-2-aminocyclohexylamino)pyrido[4,3-d]pyrimidine-2,4(1H,3H)-dione in presence of NADPH. It counts as ADME, subcellular.
The test system of data set [7] is Rattus norvegicus. As to the kind of experiment: Dose normalized AUC in Sprague-Dawley rat at 1 mg/kg, iv. On the set-up: dose 1 mg/kg, route intravenous. The format is ADME, organism-based. The conditions noted are these: in vivo.
Another data set deals with Liver. The data set is described as follows: Half life in rat liver S9 fraction assessed as conversion into 5-(1H-indol-7-ylamino)-7-((1R,2S)-2-aminocyclohexylamino)pyrido[4,3-d]pyrimidine-2,4(1H,3H)-dione. It counts as ADME, subcellular.
The test system of data set [8] is Rattus norvegicus. The data set is described as follows: Cmax/dose in Sprague-Dawley rat at 1 mg/kg, iv and 3 mg/kg, po. It counts as ADME, organism-based. The conditions noted are these: in vivo.
A short description of data set [9]: Plasma bioavailability in Sprague-Dawley rat at 1 mg/kg, iv and 3 mg/kg, po. The format is ADME, organism-based.
Data set [10] is described as follows: Volume of distribution at steady state in Sprague-Dawley rat at 1 mg/kg, iv and 3 mg/kg, po. The note with it: in vivo, read-out: Vdss. The format is ADME, organism-based.
Data set [11] in a line: Apparent permeability from apical to basolateral side in human Caco2 cells. The note with it: Caco-2. It counts as ADME, cell-based.
Data set [12] in a line: Clearance in Sprague-Dawley rat at 1 mg/kg, iv and 3 mg/kg, po. The format is ADME, organism-based. The note with it: in vivo.
Data set [13] in a line: Apparent permeability from basolateral to apical side in human Caco2 cells. The conditions noted are these: Caco-2. The format is ADME, cell-based.
In the next data set the test system is Liver microsome. The data set is described as follows: (§1) Half life in rat liver microsomes. The conditions noted are these: microsomes. The format is ADME.
Data set [14] in a line: Drug metabolism in pig liver microsomes assessed as conversion into 5-(1H-indol-7-ylamino)-7-((1R,2S)-2-aminocyclohexylamino)pyrido[4,3-d]pyrimidine-2,4(1H,3H)-dione by NMR. The format is ADME, Sus scrofa.
Data set [15] in a line: Half life in dog liver S9 fraction. The format is ADME, subcellular, Canis lupus familiaris.
Data set [16] addresses Tyrosine-protein kinase Lyn (Homo sapiens, UniProt P07948). The data set is described as follows: Inhibition of Lyn (unknown origin).
Data set [17] has as its target Tyrosine-protein kinase JAK2 (Homo sapiens, UniProt O60674). The data set is described as follows: Inhibition of JAK2 (unknown origin).
For data set [18], the target named is Voltage-gated inwardly rectifying potassium channel KCNH2 (Homo sapiens, UniProt Q12809). As to the kind of experiment: Inhibition of human ERG by Q-patch assay.
The target in data set [19] is T1, Tyrosine-protein kinase SYK. The data set is described as follows: Inhibition of Syk in human whole blood assessed as inhibition of P-SLP76 in CD14+ monocytes by flow cytometry.
The nature of data set [20]: as §1. The format is ADME. The conditions noted are these: liver microsomes.

Tyrosine-protein kinase Lyn, sequence (P07948 whole entry): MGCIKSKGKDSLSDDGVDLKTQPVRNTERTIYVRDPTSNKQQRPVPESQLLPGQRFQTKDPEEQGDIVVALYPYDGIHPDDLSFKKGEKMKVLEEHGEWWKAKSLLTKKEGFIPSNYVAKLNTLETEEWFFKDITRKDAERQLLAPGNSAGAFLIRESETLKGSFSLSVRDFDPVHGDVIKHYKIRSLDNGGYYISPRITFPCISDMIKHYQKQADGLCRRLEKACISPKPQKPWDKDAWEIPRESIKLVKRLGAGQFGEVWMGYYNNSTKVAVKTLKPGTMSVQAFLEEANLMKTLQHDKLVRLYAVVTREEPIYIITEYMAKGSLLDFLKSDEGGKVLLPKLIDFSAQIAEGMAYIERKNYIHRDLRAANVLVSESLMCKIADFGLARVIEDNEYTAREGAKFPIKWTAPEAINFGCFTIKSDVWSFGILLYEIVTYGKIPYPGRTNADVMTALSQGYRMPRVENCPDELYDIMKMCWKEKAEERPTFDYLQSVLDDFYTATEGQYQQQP
Tyrosine-protein kinase JAK2, sequence (O60674 whole entry): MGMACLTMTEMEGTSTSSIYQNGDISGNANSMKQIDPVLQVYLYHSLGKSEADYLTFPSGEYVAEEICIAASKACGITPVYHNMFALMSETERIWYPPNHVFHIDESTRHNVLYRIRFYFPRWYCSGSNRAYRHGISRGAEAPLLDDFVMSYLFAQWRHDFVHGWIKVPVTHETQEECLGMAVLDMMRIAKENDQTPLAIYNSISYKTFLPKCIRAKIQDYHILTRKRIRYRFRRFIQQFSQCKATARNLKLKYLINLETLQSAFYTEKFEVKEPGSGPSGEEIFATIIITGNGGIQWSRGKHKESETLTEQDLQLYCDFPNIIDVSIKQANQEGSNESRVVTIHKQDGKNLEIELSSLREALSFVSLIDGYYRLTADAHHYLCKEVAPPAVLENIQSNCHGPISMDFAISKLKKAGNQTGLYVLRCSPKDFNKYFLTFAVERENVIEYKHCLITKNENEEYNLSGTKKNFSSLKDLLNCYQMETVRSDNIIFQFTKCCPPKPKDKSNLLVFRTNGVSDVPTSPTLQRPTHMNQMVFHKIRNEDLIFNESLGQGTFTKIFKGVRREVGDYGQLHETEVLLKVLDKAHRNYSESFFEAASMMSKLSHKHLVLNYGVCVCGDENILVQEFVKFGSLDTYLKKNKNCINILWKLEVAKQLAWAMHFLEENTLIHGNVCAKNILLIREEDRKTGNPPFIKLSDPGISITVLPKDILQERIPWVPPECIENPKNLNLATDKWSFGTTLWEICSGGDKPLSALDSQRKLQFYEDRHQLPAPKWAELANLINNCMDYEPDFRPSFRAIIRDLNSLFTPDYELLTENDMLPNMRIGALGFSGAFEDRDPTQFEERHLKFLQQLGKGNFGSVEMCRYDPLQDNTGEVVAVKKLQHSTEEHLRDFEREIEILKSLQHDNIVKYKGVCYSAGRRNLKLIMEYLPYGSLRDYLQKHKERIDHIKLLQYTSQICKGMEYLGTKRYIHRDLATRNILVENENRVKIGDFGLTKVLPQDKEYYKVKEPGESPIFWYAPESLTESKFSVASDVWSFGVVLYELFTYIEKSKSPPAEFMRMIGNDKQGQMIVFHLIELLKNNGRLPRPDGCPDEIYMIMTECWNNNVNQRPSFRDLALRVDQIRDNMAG
Voltage-gated inwardly rectifying potassium channel KCNH2, sequence (Q12809 whole entry): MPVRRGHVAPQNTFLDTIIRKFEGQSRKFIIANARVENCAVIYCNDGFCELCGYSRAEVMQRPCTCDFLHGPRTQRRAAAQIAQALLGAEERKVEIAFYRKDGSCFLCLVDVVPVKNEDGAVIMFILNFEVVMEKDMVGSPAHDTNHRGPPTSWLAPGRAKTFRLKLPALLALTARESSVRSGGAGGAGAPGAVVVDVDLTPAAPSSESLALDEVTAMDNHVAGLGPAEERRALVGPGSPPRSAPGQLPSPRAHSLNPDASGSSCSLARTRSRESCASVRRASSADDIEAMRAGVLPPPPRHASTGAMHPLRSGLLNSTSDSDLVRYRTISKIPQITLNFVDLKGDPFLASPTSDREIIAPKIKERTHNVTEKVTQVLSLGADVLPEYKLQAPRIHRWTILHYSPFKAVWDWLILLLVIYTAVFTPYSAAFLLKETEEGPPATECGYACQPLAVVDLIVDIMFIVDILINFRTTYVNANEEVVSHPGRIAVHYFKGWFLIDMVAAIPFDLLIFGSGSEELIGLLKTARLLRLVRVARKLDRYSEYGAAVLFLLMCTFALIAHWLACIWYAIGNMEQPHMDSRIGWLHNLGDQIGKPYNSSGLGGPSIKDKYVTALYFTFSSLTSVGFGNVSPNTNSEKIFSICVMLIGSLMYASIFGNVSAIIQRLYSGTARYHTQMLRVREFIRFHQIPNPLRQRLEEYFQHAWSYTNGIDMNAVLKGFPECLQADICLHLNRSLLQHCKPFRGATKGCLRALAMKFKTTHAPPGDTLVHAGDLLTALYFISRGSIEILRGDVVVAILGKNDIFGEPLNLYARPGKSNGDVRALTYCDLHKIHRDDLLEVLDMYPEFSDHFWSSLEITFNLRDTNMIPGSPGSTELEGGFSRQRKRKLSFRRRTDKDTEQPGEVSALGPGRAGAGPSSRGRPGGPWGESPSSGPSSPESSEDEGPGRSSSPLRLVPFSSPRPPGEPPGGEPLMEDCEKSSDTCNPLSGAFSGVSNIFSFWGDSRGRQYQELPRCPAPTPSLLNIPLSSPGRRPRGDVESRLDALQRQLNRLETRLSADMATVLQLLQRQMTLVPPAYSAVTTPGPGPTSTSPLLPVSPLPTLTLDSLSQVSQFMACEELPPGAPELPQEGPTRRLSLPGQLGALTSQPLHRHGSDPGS

In turn, `NC(=O)c1cnc(N[C@@H]2CCCC[C@@H]2N)nc1Nc1cccc(-n2nccn2)c1` showed a pIC50 with Bone marrow cell of 5.23.

With `N[C@H]1CCCC[C@H]1Nc1cc2nc[nH]c(=O)c2c(Nc2cccc(-n3nccn3)c2)n1`, the pIC50 in [1] was 6.11; in data set [2] it was 7.13; in [3], 8.30; in the data set on Bone marrow cell, 6.60.

For the compound `N[C@H]1CCCC[C@H]1Nc1cc2nc[nH]c(=O)c2c(Nc2cccc3cc[nH]c23)n1`, the AUC/dose is 9 nM·h in the data set with Rattus norvegicus [4] and 629 nM·h in the data set on Rattus norvegicus [7]. The half-life in data set [5] is 660 min; in [15] it was greater than 120 min. Besides, the t1/2 was less than 5 min in [6], less than 5 min in the data set with Liver and 22 min in the data set with Liver microsome. In the data set with Rattus norvegicus [8], this compound had a Cmax/dose of 1 nM. In data set [9], the bioavailability came to 1%. Besides, the Vd in data set [10] stood at 31 L/kg. Moreover, the apical-to-basolateral permeability (Papp A→B) in [11] was 9.5 ×10⁻⁶ cm/s. Moreover, the clearance in data set [12] was 69 mL/min/kg. In addition, in [13], the Papp B→A stood at 15.2 ×10⁻⁶ cm/s. The Drug metabolism entry in [14] was “metabolite_detected”.

As for `Cc1c[nH]c2c(Nc3nc(N[C@@H]4CCCC[C@@H]4N)cc4nc[nH]c(=O)c34)cccc12`, the pIC50 in [1] is 7.33; in data set [16], 7.36; in [2] it was 7.48; in [17], 6.72; in [18] it was less than 4.52; in data set [19] it was 6.09. In addition, the pIC50 in [3] is 8.70; with Bone marrow cell, 5.42. The AUC/dose is 40 nM·h in the data set with Rattus norvegicus [4] and 1109 nM·h with Rattus norvegicus [7]. For the same compound, the half-life in [5] was 780 min; in data set [20], 25 min. Moreover, the Cmax/dose in the data set with Rattus norvegicus [8] was found to be 4 nM. Further, in data set [9], the bioavailability was found to be 4%. For the same compound, in data set [10], the Vd amounted to 19 L/kg. Besides, the Papp A→B in [11] turned out to be 9.5 ×10⁻⁶ cm/s. Moreover, in data set [12], the clearance worked out at 39 mL/min/kg. Besides, the Papp B→A in [13] was found to be 9.6 ×10⁻⁶ cm/s.

As to `N[C@H]1CCCC[C@H]1Nc1cc2nc[nH]c(=O)c2c(Nc2cccc3c(Cl)c[nH]c23)n1`, the pIC50 in data set [1] is 6.49; in data set [16] it was 6.00; in data set [2], 6.09; in data set [17], 5.74; in data set [18], 4.70; in [3] it was 7.47. This compound showed a pIC50 in the data set on Bone marrow cell of 5.18. Also, the half-life in data set [20] came out at 19 min.

With `Cn1ccc2cccc(Nc3nc(N[C@@H]4CCCC[C@@H]4N)cc4nc[nH]c(=O)c34)c21`, the pIC50 in data set [1] was 5.03; in data set [16], less than 5.00; in [2] it was less than 5.00; in [17], less than 5.00; in [3], 5.80; in the data set with Bone marrow cell, less than 5.00. This compound also showed a half-life in [20] of 9 min.

With `N[C@H]1CCCC[C@H]1Nc1cc2nc[nH]c(=O)c2c(Nc2cccc3[nH]ccc23)n1`, the pIC50 in data set [1] was 7.46; in data set [16], 7.49; in data set [2], 7.85; in data set [17] it was 7.08; in data set [19] it was 6.49; in data set [3], 9.00. The compound also had a pIC50 in the data set with Bone marrow cell of 5.38. In data set [20], the half-life was 17 min.

For `N[C@H]1COCC[C@H]1Nc1cc2nc[nH]c(=O)c2c(Nc2cccc3cc[nH]c23)n1`, the pIC50 in [1] is 7.22; in data set [16], 6.64; in data set [2] it was 6.43; in data set [17], 6.54; in data set [19], 6.63; in data set [3], 7.70. The compound also gave a pIC50 in the data set on Bone marrow cell of 5.13. For the same compound, the half-life in [20] was 14 min.

As to `C[C@H](N)CNc1cc2nc[nH]c(=O)c2c(Nc2cccc3cc[nH]c23)n1`, the pIC50 was 6.68 in data set [1]; 7.08 in [16]; 6.35 in [2]; 6.01 in [17]; 6.00 in data set [19]; 7.68 in data set [3]. In the data set on Bone marrow cell, the pIC50 is less than 5.00. In data set [20], this compound registered a half-life of 10 min.

As to `O=c1[nH]cnc2cc(N[C@@H]3CCCNC3)nc(Nc3cccc4cc[nH]c34)c12`, the pIC50 is 6.42 in [1]; 6.50 in data set [16]; 5.52 in [2]; 6.02 in data set [17]; 5.70 in data set [19]; 6.78 in [3].

`Cc1c[nH]c2c(Nc3nc(N[C@@H]4CCOC[C@@H]4N)cc4nc[nH]c(=O)c34)cccc12`: the pIC50 in data set [1] is 7.43; in data set [16] it was 7.16; in [2] it was 7.33; in data set [17] it was 6.74; in data set [18], less than 4.52; in [19], 6.52. For the same compound, the pIC50 is 9.00 in [3] and 5.22 with Bone marrow cell. Moreover, the AUC/dose turned out to be 9 nM·h in the data set with Rattus norvegicus [4] and 401 nM·h with Rattus norvegicus [7]. Also, the half-life in [5] is 198 min; in data set [20] it was 20 min. For the same compound, the Cmax/dose in the data set with Rattus norvegicus [8] was determined as 2 nM. This compound showed a bioavailability in data set [9] of 2%. In [10], the Vd stood at 12 L/kg. In data set [12], the clearance amounted to 112 mL/min/kg.

On to `Cc1nc2cc(N[C@@H]3CCCC[C@@H]3N)nc(Nc3cccc4c(C)c[nH]c34)c2c(=O)[nH]1`, for which the t1/2 (in data set [6]; with Liver) was greater than 120 min in each case. In addition, the pIC50 in [16] was less than 5.00; in [2] it was less than 5.00; in [17], less than 5.00; in data set [3], 6.32. This compound also gave a half-life in [20] of 59 min.

With `Cn1cc2c(Nc3nc(N[C@@H]4CCOC[C@@H]4N)cc4cc[nH]c(=O)c34)cccc2n1`, the negative-log IC50 (pIC50) was 7.11 in data set [1]; 6.72 in data set [16]; 7.74 in data set [2]; less than 4.52 in data set [18]; 6.42 in data set [19]; 9.00 in [3]. In addition, the pIC50 in the data set with Bone marrow cell is 5.84. For the same compound, the t1/2 (in data set [6]; with Liver) was greater than 120 min in each case. The compound also registered a half-life in [20] of 22 min.

As to `N[C@H]1CCCC[C@H]1Nc1cc2cc[nH]c(=O)c2c(Nc2cccc3c(Cl)c[nH]c23)n1`, the pIC50 in data set [1] is 6.55; in data set [16] it was 5.74; in data set [2], 6.46; in data set [17], 5.91; in [3] it was 8.40. The t1/2 (in data set [6]; in the data set on Liver) was greater than 120 min in each case. For the same compound, the half-life in data set [20] turned out to be 9 min.

As to `Cc1c[nH]c2c(Nc3nc(N[C@@H]4CCCC[C@@H]4N)cc4cc[nH]c(=O)c34)cccc12`, the pIC50 in data set [1] is 7.02; in data set [16], 6.26; in data set [2] it was 7.09; in [17] it was 6.52; in data set [19] it was 6.37; in [3], 8.52. The compound also had a pIC50 in the data set on Bone marrow cell of 5.31. In [20], this compound yielded a half-life of 27 min.

As for `N[C@H]1CCCC[C@H]1Nc1cc2[nH]c(=O)[nH]c(=O)c2c(Nc2cccc3cc[nH]c23)n1`, the pIC50 in [3] was 5.72.

`COc1cc(Nc2ncc(F)c(Nc3ccc4c(n3)NC(=O)C(C)(C)O4)n2)cc(OC)c1OC` [R-406]: in the data set with Bone marrow cell, the pIC50 is 6.83.
